Test results: paper PMC12649225, “Machine Learning-Identified Potent Antimicrobial Peptides Against Multidrug-Resistant Bacteria and Skin Infections” (Antibiotics, 2025)
Read-outs that look alike come from different tables or passages of the source.

Assays:
A. baumannii RUH875 [1] = type: cell-based; details: for LC99.9 A. baumannii RUH875 50% Plasma 2 h: RUH875, 2 h; for LC99.9 A. baumannii RUH875 50% Plasma 18 h: RUH875, 18 h
Protocol: (§1) The bacterial strains used in this study included S. aureus JAR060131 [54] and the MDR ESKAPE pathogens Enterococcus faecium LUH15122, S. aureus LUH14616, Klebsiella pneumoniae LUH15104, A. baumannii RUH875 [55], Pseudomonas aeruginosa LUH15103, Enterobacter cloacae LUH15114, and the colistin-resistant Escherichia coli LUH15117. Before each experiment, bacteria from frozen stocks were cultured at 37 °C for 18–24 h on sheep blood agar plates (BioMérieux, Marcy-l’Étoile, France). All strains were then cultured from colonies either in tryptic soy broth (TSB; Oxoid, Basingstoke, UK) for A. baumannii, S. aureus, and E. faecium, or in brain heart infusion broth (BHI; Oxoid) for K. pneumoniae, P. aeruginosa, E. cloacae, and E. coli at 37 °C with shaking at 120 rpm for 18–24 h. Subsequently, bacteria were cultured to mid-logarithmic phase in the media described above at 37 °C with shaking at 120 rpm for 3 h. Bacteria were then washed twice with PBS and diluted to the required inoculum suspension concentration in Roswell Park Memorial Institute (RPMI)-1640 medium containing 20 mM HEPES and L-glutamine but without sodium bicarbonate (Sigma-Aldrich; hereafter referred to as RPMI), based on optical density at 620 nm. RPMI was selected because it supports bacterial growth without impairing AMP activity.
(§2) Bactericidal activity was assessed as described by de Breij et al.. Briefly, mid-logarithmic phase bacterial cultures were diluted to a final concentration of 1 × 10^7 colony-forming units (CFU)/mL in RPMI. Then, 10 µL was added to a final volume of 100 µL in RPMI (final concentration: 1 × 10^6 CFU/mL). Cultures were exposed to peptides either in RPMI or RPMI supplemented with 50% (v/v) human plasma (hereafter referred to as 50% plasma), obtained from four healthy volunteers after informed consent, frozen after collection, and pooled (Sanquin, Amsterdam, The Netherlands). Assays were performed in duplicate using round-bottom polypropylene microtiter plates (Costar, Arlington, VA, USA) and repeated three times. In the initial screening phase (Table 1, Table 2 and Table S1), peptide solutions of 1, 10, and 100 μM (final concentration) were tested against A. baumannii RUH875 and S. aureus JAR060131 in RPMI and in 50% plasma. After this selection process, two lead candidates, their RI variants, and reference peptides were tested with a final concentration range of 0.12 to 120 µM (two-fold dilutions) in RPMI and in 50% plasma (Table 3). The peptides were also tested against ESKAPE pathogens, with Synthetic Antimicrobial and Antibiofilm Peptide (SAAP)-148 as a reference peptide (Table 4).RPMI or 50% plasma served as no-treatment controls. After 2 and 18 h of incubation at 37 °C with shaking at 120 rpm in a humidified environment, the numbers of viable bacteria were quantified. Bactericidal activity was expressed as the lethal concentration 99.9% (LC99.9), defined as the lowest peptide concentration that killed ≥99.9% of bacteria within 2 h (LC99.9_2h) or 18 h (LC99.9_18h) compared to the initial inoculum.

E. cloacae LUH15114 = type: cell-based; details: for LC99.9 E. cloacae LUH15114 50% Plasma 2 h / LC99.9 E. cloacae LUH15114 RPMI 2 h: LUH15114, 2 h
Protocol: as §1, §2

E. coli LUH15117 = type: cell-based; details: for LC99.9 E. coli LUH15117 RPMI 2 h: LUH15117, 2 h
Protocol: as §1, §2

E. faecium LUH15122 = type: cell-based; details: for LC99.9 E. faecium LUH15122 50% Plasma 18 h / LC99.9 E. faecium LUH15122 RPMI 18 h: LUH15122, 18 h
Protocol: as §1, §2

K. pneumoniae LUH15104 = type: cell-based; details: for LC99.9 K. pneumoniae LUH15104 50% Plasma 2 h / LC99.9 K. pneumoniae LUH15104 RPMI 2 h: LUH15104, 2 h; for LC99.9 K. pneumoniae LUH15104 50% Plasma 18 h / LC99.9 K. pneumoniae LUH15104 RPMI 18 h: LUH15104, 18 h
Protocol: as §1, §2

P. aeruginosa LUH15103 = type: cell-based; details: for LC99.9 P. aeruginosa LUH15103 50% Plasma 2 h / LC99.9 P. aeruginosa LUH15103 RPMI 2 h: LUH15103, 2 h; for LC99.9 P. aeruginosa LUH15103 50% Plasma 18 h / LC99.9 P. aeruginosa LUH15103 RPMI 18 h: LUH15103, 18 h
Protocol: as §1, §2

S. aureus JAR060131 = type: cell-based; details: for LC99.9 S. aureus JAR060131 50% Plasma 18 h: JAR060131, 18 h
Protocol: as §1, §2

S. aureus LUH14616 = type: cell-based; details: for LC99.9 S. aureus LUH14616 50% Plasma 2 h / LC99.9 S. aureus LUH14616 RPMI 2 h: LUH14616, 2 h; for LC99.9 S. aureus LUH14616 50% Plasma 18 h / LC99.9 S. aureus LUH14616 RPMI 18 h: LUH14616, 18 h
Protocol: as §1, §2

[2] = test system: BJ human skin fibroblast cells; assay: LDH leakage assay (membrane integrity); details: lowest concentration causing >30% LDH leakage; BJ fibroblasts; 24 h; DMEM with 2% FBS; 0.05-60 µM
Protocol: BJ human skin fibroblast cells (ATCC CRL-2522; RRID: CVCL_3653; LGC Standards, Germany (September 2023)) were cultured in Dulbecco’s Modified Eagle Medium (DMEM; Gibco, Waltham, MA, USA) supplemented with 10% (v/v) foetal bovine serum (FBS; Sigma-Aldrich) and 1% (v/v) penicillin/streptomycin (pen/strep; Gibco). Cell suspensions (5 × 10^5 cells/mL) were seeded into 96-well plates (100 μL/well; Thermo Scientific, Waltham, MA, USA) and allowed to adhere for 24 h. Monolayers were then exposed to two-fold serial dilutions of GDST peptides, their RI variants, and reference peptides (final concentrations: 0.05 to 60 µM) in fresh DMEM with 2% (v/v) FBS for 24 h at 37 °C in a humidified atmosphere with 5% CO2.
Cell viability and membrane integrity were assessed using the water-soluble tetrazolium salt (WST-1; Roche, Basel, Switzerland) assay and the lactate dehydrogenase (LDH; Abcam, Cambridge, UK) assay, respectively, according to manufacturer instructions. Results were expressed as percentages of metabolic activity and LDH leakage relative to untreated control cells and the positive lysis control, respectively. The cytotoxic concentration was defined as the lowest peptide concentration causing <70% metabolic activity and >30% LDH leakage. All experiments were performed in triplicate.

A. baumannii RUH875 [3] = assay: SYTOX Green membrane permeabilization assay; type: cell-based, Acinetobacter baumannii; details: RPMI, 1 μM SYTOX Green; for SYTOX fluorescence intensity, A. baumannii: 1- and 2-fold the LC99.9_2h concentrations, over 90 min
Protocol: Control samples were exposed to RPMI only. As a positive control, heat-killed bacteria were incubated at 95 °C for 10 min to induce maximum membrane permeabilization. Fluorescence (excitation: 485 nm, emission: 520 nm) was monitored every minute for 90 min at 37 °C using a […] plate reader (Ortenberg, Germany), with peptides and positive controls added after the third cycle. Background fluorescence (SYTOX Green alone) was subtracted from all values. All assays were performed in triplicate and repeated twice independently.

[4] = 50% plasma, 2 h, median of three independent experiments

Substance	LC99.9 A. baumannii RUH875 50% Plasma 2 h (A. baumannii RUH875 [1])	LC99.9 A. baumannii RUH875 50% Plasma 18 h (A. baumannii RUH875 [1])	LC99.9 E. cloacae LUH15114 50% Plasma 2 h (E. cloacae LUH15114)	LC99.9 E. cloacae LUH15114 RPMI 2 h (E. cloacae LUH15114)	LC99.9 E. coli LUH15117 RPMI 2 h (E. coli LUH15117)	LC99.9 E. faecium LUH15122 50% Plasma 18 h (E. faecium LUH15122)	LC99.9 E. faecium LUH15122 RPMI 18 h (E. faecium LUH15122)	LC99.9 K. pneumoniae LUH15104 50% Plasma 2 h (K. pneumoniae LUH15104)	LC99.9 K. pneumoniae LUH15104 RPMI 2 h (K. pneumoniae LUH15104)	LC99.9 K. pneumoniae LUH15104 50% Plasma 18 h (K. pneumoniae LUH15104)	LC99.9 K. pneumoniae LUH15104 RPMI 18 h (K. pneumoniae LUH15104)	LC99.9 P. aeruginosa LUH15103 50% Plasma 2 h (P. aeruginosa LUH15103)	LC99.9 P. aeruginosa LUH15103 RPMI 2 h (P. aeruginosa LUH15103)	LC99.9 P. aeruginosa LUH15103 50% Plasma 18 h (P. aeruginosa LUH15103)	LC99.9 P. aeruginosa LUH15103 RPMI 18 h (P. aeruginosa LUH15103)	LC99.9 S. aureus JAR060131 RPMI 2 h (S. aureus JAR060131; JAR060131, 2 h)	LC99.9 S. aureus JAR060131 50% Plasma 18 h (S. aureus JAR060131)	LC99.9 S. aureus LUH14616 50% Plasma 2 h (S. aureus LUH14616)	LC99.9 S. aureus LUH14616 RPMI 2 h (S. aureus LUH14616)	LC99.9 S. aureus LUH14616 50% Plasma 18 h (S. aureus LUH14616)	further results
Ac-KRWVKIAKKWWRLL-NH2 [GDST-038]	0.94 µM	0.47 µM	60 µM	3.75 µM	0.94 µM	7.5 µM	0.94 µM	7.5 µM	3.75 µM	3.75 µM	3.75 µM	15 µM	7.5 µM	15 µM	3.75 µM	0.94 µM	0.94 µM	7.5 µM	0.94 µM	0.94 µM	LC99.9 E. cloacae LUH15114 50% Plasma 18 h (E. cloacae LUH15114; 50% plasma, 18 h, median of three independent experiments): 1.88 µM; LC99.9 E. cloacae LUH15114 RPMI 18 h (E. cloacae LUH15114; RPMI, 18 h, median of three independent experiments): 1.88 µM; LC99.9 E. coli LUH15117 RPMI 18 h (E. coli LUH15117; colistin-resistant strain, RPMI, 18 h, median of three independent experiments): 1.88 µM; LC99.9 E. faecium LUH15122 50% Plasma 2 h (E. faecium LUH15122; [4]): 1.88 µM; LC99.9 E. faecium LUH15122 RPMI 2 h (E. faecium LUH15122; RPMI, 2 h, median of three independent experiments): 1.88 µM; LC99.9 S. aureus JAR060131 50% Plasma 2 h (S. aureus JAR060131; [4]): 1.88 µM; LC99.9 S. aureus LUH14616 RPMI 18 h (S. aureus LUH14616): 0.94 µM; Cytotoxicity LDH Leakage >30% [2]: 3.75 µM; SYTOX fluorescence intensity, A. baumannii (A. baumannii RUH875 [3]): fluorescence levels similar to heat-killed controls; Concentrations inducing membrane permeabilization / SYTOX uptake (A. baumannii RUH875 [3]; 90 min, 37 °C): 0.47 µM
Ac-KRWVKILKKVWRFL-NH2 [GDST-045]	1.88 µM	0.94 µM	60 µM	1.88 µM	0.94 µM	3.75 µM	0.94 µM	15 µM	0.94 µM	7.5 µM	1.88 µM	60 µM	1.88 µM	30 µM	3.75 µM	0.94 µM	1.88 µM	15 µM	0.94 µM	1.88 µM	LC99.9 E. cloacae LUH15114 50% Plasma 18 h (E. cloacae LUH15114; LUH15114, 18 h): 30 µM; LC99.9 E. cloacae LUH15114 RPMI 18 h (E. cloacae LUH15114; LUH15114, 18 h): 1.88 µM; LC99.9 E. coli LUH15117 RPMI 18 h (E. coli LUH15117; LUH15117, 18 h): 0.94 µM; LC99.9 E. faecium LUH15122 50% Plasma 2 h (E. faecium LUH15122; LUH15122, 2 h): 0.94 µM; LC99.9 E. faecium LUH15122 RPMI 2 h (E. faecium LUH15122; LUH15122, 2 h): 0.94 µM; LC99.9 S. aureus JAR060131 50% Plasma 2 h (S. aureus JAR060131; JAR060131, 2 h): 3.75 µM; LC99.9 S. aureus LUH14616 RPMI 18 h (S. aureus LUH14616): 0.94 µM; Cytotoxicity LDH Leakage >30% [2]: 3.75 µM; SYTOX fluorescence intensity, A. baumannii (A. baumannii RUH875 [3]): fluorescence levels similar to heat-killed controls
